Assay [1] concerns the target Serine/threonine-protein kinase 26 (Homo sapiens) (UniProt Q9P289). The assay can be described thus: Inhibition of human MST4 at 18.6 nM by HotSpot assay relative to control.
The target in assay [2] is T1, G protein-coupled receptor kinase 3 (Homo sapiens) (UniProt P35626).
T1 sequence (whole entry): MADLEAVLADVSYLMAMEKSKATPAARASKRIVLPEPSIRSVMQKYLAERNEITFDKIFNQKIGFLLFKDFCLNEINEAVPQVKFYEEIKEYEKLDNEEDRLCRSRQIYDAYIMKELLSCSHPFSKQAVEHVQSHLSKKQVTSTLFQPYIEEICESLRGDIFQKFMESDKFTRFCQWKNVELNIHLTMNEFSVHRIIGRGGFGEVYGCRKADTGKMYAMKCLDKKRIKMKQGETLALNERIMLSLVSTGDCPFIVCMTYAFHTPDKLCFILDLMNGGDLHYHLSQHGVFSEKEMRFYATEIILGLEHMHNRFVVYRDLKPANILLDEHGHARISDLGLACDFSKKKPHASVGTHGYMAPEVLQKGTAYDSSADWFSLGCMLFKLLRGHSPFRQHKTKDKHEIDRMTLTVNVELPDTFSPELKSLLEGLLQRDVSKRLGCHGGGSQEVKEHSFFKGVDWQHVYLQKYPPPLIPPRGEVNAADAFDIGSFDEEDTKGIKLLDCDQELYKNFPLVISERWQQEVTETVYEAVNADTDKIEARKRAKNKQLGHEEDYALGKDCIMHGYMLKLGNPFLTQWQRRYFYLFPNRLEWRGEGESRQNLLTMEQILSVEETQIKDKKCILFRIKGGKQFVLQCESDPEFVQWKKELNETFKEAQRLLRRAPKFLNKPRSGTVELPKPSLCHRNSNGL
The assay can be described thus: Inhibition of human GRK3 at 18.6 nM by HotSpot assay relative to control.

Assay [3] has as its target Cyclin-dependent kinase 7/ cyclin H (Homo sapiens) (UniProt P51946+P50613). Kind of assay: Inhibition of human CDK7/cyclin H at 18.6 nM by HotSpot assay relative to control. The class given is protein-complex assay.
Assay [4] deals with MAP kinase-activated protein kinase 3 (Homo sapiens) (UniProt Q16644). The assay can be described thus: Inhibition of human MAPKAPK3 at 18.6 nM by HotSpot assay relative to control.
Chain of MAP kinase-activated protein kinase 3 (Homo sapiens) (Q16644 whole entry, looked up): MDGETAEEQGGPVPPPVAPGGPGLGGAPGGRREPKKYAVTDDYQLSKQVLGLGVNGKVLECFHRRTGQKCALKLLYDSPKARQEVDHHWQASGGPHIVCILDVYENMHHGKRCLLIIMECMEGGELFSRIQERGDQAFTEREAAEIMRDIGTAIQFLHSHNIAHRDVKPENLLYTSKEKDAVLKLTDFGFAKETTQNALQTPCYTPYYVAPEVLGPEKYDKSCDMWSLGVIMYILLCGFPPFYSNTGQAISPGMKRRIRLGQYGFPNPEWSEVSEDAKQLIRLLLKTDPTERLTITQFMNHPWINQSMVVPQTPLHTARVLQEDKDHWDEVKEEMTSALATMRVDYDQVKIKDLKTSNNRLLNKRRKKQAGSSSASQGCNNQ
The target of assay [5] is Calcium/calmodulin-dependent protein kinase kinase 2 (Homo sapiens) (UniProt Q96RR4). The assay can be described thus: Inhibition of human CAMKK2 at 18.6 nM by HotSpot assay relative to control.
Chain of Calcium/calmodulin-dependent protein kinase kinase 2 (Homo sapiens) (Q96RR4 2-588 limits assumed): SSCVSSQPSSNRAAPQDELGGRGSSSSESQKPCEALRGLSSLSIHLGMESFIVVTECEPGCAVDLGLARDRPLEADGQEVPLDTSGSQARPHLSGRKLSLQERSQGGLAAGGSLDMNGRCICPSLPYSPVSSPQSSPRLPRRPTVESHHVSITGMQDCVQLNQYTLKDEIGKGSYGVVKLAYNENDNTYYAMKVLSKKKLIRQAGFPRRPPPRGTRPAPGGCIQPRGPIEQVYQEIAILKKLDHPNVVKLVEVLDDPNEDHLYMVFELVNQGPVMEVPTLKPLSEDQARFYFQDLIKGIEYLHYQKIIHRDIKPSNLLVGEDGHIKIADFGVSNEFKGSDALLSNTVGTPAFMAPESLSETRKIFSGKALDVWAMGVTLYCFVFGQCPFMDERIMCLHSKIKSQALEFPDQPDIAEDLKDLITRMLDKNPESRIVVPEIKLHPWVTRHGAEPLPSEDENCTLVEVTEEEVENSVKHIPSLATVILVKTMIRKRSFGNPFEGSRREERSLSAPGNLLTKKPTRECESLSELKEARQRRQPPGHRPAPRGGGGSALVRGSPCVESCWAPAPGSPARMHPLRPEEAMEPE
In assay [6] the target is Mast/stem cell growth factor receptor Kit (Homo sapiens) (UniProt P10721). The assay can be described thus: Inhibition of human c-Kit at 18.6 nM by HotSpot assay relative to control.
Chain of Mast/stem cell growth factor receptor Kit (Homo sapiens) (P10721 whole entry): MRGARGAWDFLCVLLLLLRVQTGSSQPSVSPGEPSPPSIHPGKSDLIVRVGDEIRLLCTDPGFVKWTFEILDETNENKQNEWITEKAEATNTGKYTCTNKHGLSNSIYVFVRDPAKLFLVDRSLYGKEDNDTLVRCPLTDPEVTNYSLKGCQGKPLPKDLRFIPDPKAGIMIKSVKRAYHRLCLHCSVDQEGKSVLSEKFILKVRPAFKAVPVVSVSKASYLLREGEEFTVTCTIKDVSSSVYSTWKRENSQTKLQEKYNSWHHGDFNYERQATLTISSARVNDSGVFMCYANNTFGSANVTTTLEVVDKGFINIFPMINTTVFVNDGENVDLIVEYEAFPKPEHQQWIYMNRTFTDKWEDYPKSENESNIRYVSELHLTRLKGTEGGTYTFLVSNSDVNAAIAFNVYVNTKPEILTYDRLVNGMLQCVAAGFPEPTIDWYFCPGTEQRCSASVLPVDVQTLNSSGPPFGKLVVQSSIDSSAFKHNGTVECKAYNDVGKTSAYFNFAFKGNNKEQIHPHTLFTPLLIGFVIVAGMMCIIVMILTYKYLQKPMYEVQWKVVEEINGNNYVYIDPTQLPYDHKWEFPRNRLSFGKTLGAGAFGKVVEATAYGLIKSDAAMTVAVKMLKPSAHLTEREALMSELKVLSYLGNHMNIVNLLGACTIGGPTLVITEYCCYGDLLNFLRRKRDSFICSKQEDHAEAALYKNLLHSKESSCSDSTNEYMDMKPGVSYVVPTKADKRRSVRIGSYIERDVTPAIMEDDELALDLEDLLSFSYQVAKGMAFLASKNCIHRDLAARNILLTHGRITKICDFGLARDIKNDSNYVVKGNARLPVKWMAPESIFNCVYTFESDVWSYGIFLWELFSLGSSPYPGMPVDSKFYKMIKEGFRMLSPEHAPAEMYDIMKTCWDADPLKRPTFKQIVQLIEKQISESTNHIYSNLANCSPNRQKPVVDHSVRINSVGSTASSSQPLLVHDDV
Assay [7] has as its target Vascular endothelial growth factor receptor 1 (Homo sapiens) (UniProt P17948). The assay can be described thus: Inhibition of human FLT1 at 18.6 nM by HotSpot assay relative to control.
The target of assay [8] is Mitogen-activated protein kinase 10 (Homo sapiens) (UniProt P53779). The assay can be described thus: Inhibition of human JNK3 at 1.82 nM by HotSpot assay relative to control.
Chain of Mitogen-activated protein kinase 10 (Homo sapiens) (P53779 whole entry): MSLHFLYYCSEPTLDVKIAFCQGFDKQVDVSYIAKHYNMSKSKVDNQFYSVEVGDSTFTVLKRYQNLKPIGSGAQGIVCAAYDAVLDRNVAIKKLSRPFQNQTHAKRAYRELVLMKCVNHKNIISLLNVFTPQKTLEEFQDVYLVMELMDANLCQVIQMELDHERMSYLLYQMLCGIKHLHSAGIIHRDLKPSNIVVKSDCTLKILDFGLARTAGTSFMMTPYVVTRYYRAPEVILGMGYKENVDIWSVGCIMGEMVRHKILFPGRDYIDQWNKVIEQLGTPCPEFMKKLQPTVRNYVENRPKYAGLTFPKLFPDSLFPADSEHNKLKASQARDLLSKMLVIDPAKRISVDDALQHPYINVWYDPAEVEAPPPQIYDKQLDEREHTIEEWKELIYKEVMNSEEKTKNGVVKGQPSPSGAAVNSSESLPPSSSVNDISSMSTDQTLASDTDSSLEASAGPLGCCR
The target of assay [9] is Leukocyte tyrosine kinase receptor (Homo sapiens) (UniProt P29376). Kind of assay: Inhibition of human LTK at 1.82 nM by HotSpot assay relative to control.
Assay [10] addresses LIM domain kinase 1 (Homo sapiens) (UniProt P53667). Kind of assay: Inhibition of human LIMK1 at 1.82 nM by HotSpot assay relative to control.
The target of assay [11] is Maternal embryonic leucine zipper kinase (Homo sapiens) (UniProt Q14680). The assay can be described thus: Inhibition of human MELK at 1.82 nM by HotSpot assay relative to control.
Chain of Maternal embryonic leucine zipper kinase (Homo sapiens) (Q14680 whole entry, looked up): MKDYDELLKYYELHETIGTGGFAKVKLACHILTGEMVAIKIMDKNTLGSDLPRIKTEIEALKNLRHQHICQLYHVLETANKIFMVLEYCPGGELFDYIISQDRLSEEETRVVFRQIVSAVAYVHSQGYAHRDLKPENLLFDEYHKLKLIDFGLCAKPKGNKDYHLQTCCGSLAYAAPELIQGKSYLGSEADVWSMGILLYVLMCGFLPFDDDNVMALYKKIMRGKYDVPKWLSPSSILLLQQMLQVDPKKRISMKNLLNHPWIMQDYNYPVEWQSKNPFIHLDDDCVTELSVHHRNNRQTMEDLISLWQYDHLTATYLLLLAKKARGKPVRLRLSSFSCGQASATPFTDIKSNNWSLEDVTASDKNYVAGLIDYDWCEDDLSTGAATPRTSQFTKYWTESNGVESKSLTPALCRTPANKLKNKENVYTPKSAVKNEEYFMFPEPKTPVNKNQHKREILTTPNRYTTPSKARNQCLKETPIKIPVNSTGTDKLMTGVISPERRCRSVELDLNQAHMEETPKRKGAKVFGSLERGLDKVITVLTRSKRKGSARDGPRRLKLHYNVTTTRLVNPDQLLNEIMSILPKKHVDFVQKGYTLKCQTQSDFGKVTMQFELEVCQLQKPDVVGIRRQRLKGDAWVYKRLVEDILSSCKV
In assay [12] the target is T2, Ephrin type-A receptor 3 (Homo sapiens) (UniProt P29320).
T2 sequence (whole entry): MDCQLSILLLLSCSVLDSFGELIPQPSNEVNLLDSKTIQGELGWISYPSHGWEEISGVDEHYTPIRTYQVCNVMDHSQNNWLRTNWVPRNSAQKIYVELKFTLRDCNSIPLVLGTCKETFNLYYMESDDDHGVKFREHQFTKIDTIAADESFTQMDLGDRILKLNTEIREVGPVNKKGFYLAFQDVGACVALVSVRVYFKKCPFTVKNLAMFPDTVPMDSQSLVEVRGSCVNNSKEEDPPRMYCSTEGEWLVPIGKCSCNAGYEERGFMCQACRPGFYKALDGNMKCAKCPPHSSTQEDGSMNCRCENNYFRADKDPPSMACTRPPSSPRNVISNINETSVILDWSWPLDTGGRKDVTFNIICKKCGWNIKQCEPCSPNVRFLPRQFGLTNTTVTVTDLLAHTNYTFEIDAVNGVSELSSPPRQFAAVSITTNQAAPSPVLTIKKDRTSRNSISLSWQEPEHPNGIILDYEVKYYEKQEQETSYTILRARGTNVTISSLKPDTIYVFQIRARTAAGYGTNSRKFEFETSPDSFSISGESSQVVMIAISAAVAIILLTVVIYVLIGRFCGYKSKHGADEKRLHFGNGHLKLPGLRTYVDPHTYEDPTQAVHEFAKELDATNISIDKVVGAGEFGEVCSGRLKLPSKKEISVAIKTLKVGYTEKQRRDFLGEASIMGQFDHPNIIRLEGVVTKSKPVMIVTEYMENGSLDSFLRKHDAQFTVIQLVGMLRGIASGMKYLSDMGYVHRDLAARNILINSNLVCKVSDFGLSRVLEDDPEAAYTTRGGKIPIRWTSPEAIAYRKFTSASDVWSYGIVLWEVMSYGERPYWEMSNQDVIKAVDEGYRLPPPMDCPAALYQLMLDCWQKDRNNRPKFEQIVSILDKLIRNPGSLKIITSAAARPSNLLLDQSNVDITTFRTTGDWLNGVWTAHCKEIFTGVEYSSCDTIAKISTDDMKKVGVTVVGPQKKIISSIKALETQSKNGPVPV
Kind of assay: Inhibition of human EPHA3 at 1.82 nM by HotSpot assay relative to control.

In assay [13] the target is CDK6/cyclin D1 (Homo sapiens) (UniProt P24385+Q00534). Kind of assay: Inhibition of human CDK6/cyclin D1 at 1.82 nM by HotSpot assay relative to control. Format: protein-complex assay.
Assay [14] addresses Receptor tyrosine-protein kinase erbB-2 (Homo sapiens) (UniProt P04626). Kind of assay: Inhibition of human ERBB2 at 1.82 nM by HotSpot assay relative to control.

Among the data in ChEMBL document CHEMBL5653615 (J Biol Chem, 2013) are inhibition values, retold here.

Chain of LIM domain kinase 1 (Homo sapiens) (P53667 whole entry, looked up, the tested form may be a part): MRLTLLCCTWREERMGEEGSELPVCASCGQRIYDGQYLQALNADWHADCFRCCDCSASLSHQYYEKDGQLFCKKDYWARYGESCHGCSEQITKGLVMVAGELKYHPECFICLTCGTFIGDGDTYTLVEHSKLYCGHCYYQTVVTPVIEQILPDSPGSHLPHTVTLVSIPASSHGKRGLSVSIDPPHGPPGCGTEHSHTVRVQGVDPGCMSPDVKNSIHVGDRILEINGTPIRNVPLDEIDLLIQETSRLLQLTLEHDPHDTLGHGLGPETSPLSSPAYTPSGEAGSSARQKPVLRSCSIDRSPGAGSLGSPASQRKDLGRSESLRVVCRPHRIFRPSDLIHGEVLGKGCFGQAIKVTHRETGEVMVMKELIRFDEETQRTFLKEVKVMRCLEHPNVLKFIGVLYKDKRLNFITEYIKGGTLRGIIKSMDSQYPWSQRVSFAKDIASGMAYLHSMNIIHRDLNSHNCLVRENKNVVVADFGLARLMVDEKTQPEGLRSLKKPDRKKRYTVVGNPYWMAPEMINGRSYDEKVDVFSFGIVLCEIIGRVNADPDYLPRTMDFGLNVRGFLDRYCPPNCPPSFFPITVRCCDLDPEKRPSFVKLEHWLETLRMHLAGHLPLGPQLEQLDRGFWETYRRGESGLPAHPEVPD
Chain of Receptor tyrosine-protein kinase erbB-2 (Homo sapiens) (P04626 whole entry): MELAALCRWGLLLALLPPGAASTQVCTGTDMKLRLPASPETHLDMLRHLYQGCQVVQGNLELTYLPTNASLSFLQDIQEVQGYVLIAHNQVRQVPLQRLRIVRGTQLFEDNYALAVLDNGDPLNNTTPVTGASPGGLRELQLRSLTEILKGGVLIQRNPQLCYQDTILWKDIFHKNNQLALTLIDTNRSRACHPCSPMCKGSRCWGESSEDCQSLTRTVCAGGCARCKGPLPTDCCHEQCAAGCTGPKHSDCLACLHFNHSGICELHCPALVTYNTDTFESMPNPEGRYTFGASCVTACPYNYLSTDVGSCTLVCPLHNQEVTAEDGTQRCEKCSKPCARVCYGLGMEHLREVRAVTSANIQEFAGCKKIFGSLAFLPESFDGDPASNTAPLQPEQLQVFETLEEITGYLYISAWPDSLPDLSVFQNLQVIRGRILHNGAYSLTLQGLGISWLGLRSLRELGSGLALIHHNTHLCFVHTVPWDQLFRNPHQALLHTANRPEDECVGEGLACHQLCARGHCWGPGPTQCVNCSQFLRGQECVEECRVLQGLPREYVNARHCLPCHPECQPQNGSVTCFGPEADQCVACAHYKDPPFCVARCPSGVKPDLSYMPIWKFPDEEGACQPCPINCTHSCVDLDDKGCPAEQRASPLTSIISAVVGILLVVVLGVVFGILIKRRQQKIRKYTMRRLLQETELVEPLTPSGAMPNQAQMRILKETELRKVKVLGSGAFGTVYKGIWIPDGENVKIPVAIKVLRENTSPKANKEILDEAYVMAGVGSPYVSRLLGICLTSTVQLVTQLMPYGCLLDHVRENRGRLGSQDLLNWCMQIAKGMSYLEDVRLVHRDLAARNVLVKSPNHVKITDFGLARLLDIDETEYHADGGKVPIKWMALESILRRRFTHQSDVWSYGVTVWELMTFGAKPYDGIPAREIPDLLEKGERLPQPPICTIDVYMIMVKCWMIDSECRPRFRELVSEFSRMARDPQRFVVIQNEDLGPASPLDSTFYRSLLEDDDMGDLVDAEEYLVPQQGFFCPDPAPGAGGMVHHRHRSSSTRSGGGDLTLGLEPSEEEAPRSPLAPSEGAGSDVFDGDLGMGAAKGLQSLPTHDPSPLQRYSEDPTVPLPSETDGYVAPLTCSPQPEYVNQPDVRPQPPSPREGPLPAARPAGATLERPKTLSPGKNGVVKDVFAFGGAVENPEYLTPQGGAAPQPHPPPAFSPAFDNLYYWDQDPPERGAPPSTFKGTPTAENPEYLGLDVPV

For `C[C@]1(O)C[C@@H](c2nc(-c3ccc4ccc(-c5ccccc5)nc4c3)c3c(N)nccn32)C1`, the inhibition was -2.21% in assay [1]; -0.17% in assay [2]; -4.42% in [3]; 0.25% in assay [4]; 28% in assay [5]; 2.65% in assay [6]. In addition, the inhibition in assay [7] was -4.23%.
As to `C[C@@]1(C(=O)Nc2ccc(F)nc2)CCCN1c1nc(Nc2cc(C3CC3)n[nH]2)c2cccn2n1`, the inhibition was -8.84% in [8]; -7.41% in [9]; -7.35% in [10]; 1.63% in assay [11]; 6.1% in assay [12]; -1.74% in assay [13]. In assay [14], the inhibition was 5.5%.
